Experimental findings from patent US11370769B2, “TRPC5 inhibitors and methods of using same” (BOARD OF REGENTS OF THE UNIVERSITY OF NEBRASKA, priority 2017, dated 2022) are described below.

SMILES strings stand for the structures.

The target in test [1] is T1, TRPC5 (Homo sapiens, UniProt Q9UL62).
T1 construct: expressed in transfected cells; host or cells: HEK293
T1 sequence (Q9UL62 1-973): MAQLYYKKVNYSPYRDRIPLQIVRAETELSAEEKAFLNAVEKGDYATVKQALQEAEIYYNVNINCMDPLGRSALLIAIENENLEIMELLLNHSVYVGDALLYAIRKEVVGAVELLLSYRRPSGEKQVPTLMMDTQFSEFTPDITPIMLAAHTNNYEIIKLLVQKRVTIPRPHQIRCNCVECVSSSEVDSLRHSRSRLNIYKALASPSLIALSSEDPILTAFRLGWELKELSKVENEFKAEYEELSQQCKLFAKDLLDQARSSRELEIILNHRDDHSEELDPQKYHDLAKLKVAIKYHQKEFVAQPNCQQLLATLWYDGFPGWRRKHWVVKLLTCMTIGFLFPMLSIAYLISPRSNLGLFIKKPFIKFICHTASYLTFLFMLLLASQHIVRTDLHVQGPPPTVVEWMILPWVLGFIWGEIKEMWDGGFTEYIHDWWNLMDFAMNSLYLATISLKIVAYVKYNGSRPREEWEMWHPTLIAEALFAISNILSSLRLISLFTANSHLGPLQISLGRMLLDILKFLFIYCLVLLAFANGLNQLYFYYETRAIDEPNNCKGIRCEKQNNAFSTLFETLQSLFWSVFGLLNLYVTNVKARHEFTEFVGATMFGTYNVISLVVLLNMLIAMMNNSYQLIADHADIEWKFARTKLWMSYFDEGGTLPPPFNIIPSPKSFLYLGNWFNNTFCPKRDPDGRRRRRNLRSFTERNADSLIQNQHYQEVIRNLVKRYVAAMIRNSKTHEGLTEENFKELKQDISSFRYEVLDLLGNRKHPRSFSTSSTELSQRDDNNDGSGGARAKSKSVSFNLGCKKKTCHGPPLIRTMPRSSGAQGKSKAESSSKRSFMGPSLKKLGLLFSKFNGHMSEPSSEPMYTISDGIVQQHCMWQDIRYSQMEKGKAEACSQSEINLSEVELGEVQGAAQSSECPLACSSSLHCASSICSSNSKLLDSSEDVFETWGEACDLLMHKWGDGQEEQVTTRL
Nature of the test: Syncropath % inhibition TRPC5. Particulars: read-out: Syncropath % inhibition TRPC5 @3 μM; heading: Syncropath % inhibition TRPC5 @3. In kind it is cell-based.

Test [2] relates to podocytes. In words: ROS assay in wild-type podocytes treated with AngII. In kind it is cell-based, mouse. Particulars: WT podocytes, AngII 10 μM, 30 μM compound, 3 hours. The method, then: (§1) Podocyte culture and viral transduction: Immortalized mouse podocytes were cultured as previously described (10, 11). Podocyte viral transduction was performed using lentivirus as previously described (10, 11). Briefly, lentivirus production was carried out in HEK293T cells at 60% confluence, and viral particles were collected two days after transfection and purified by centrifugation at 1,000 rcf for 5 min. Purified lentivirus was frozen at −80° C. until further use. Podocytes were transduced with lentivirus after 7 days of differentiation, and assays were performed 5 days after viral transduction.
ROS and cell viability assays: For ROS experiment in FIG. 4A, mature podocytes were cultured as previously described. Cells were incubated with CellRox Deep Red reagent (ThermoFisher) for 30 min at 37° C. Then cells were treated with DMSO, 10 μM angiotensin II, 10 μM angiotensin II with 30 μM AC1903, or 10 μM angiotensin II with 30 μM N-acetyl-L-cysteine (NAC) for 3 hours at 37° C. Cells were washed with PBS twice and fluorescence images were observed using Olympus IX71 microscopy. Fluorescence intensities were then analyzed using ImageJ software.

Test [3] concerns caAT1R podocytes. In words: ROS assay in caAT1R expressing podocytes. In kind it is cell-based, mouse. The conditions noted are these: 30 μM ML204, 30 μM AC1903 or 50 μM NSC23677 for 36 hours. On the procedure: as §1
(§2) For experiments in FIG. 4B/C, pCDNA3.1 AT1AR-Δ324 (rat AT1R NM_030985.4) containing HA tag (Plasmid #45635, Addgene) underwent site directed mutagenesis (Agilent) to generate the N111S substitution. For FIG. 4B, differentiated podocytes were transduced with the AT1A-N111S/Δ324 construct in six-well plates. Six days after viral transduction, cells were treated with either vehicle, 30 μM ML204, 30 μM AC1903 or 50 μM NSC23677 for 36 hours. Intracellular production of ROS was measured using a cell-permeable fluorescent dye, 5-(and-6)-chloromethyl-2′,7′-dichlorodihydrofluorescein diacetate, acetyl ester (CM-H2DCFDA, Molecular Probes). Cells were incubated with 5 μM CM-H2DCFDA at 37° C. for 45 min in Hanks' balanced salt solution (HBSS). Cells were then collected, resuspended in HBSS, stained with propidium iodide and the fluorescence intensity was assessed by flow cytometry using MACSQuant Analyzer (Miltenyi Biotec, Bergisch Gladbach, Germany). Living cells, which were PI negative, were selected by FACS gating and the fluorescence of CM-H2DCFDA was recorded on the FL-1 channel (525 nm). For FIG. 4C, differentiated podocytes were transduced with the AT1A-N111S/Δ324 construct in 96 well plates. Six days after transduction, the cells were treated with either vehicle, 30 μM ML204, 30 μM AC1903 or 50 μM NSC23677 for 36 hours. […]

Test [4] deals with caAT1R podocytes. In words: Cell viability assay in podocytes expressing caAT1R. In kind it is cell-based, mouse. Particulars: 30 μM ML204, 30 μM AC1903 or 50 μM NSC23677 for 36 hours. The method, then:
as §1, §2

Take `Fc1ccc(Cc2c(NCc3ccco3)nc3ccccn23)cc1` [Compound 5, 3-(4-fluorobenzyl)-N-(furan-2-ylmethyl)imidazo[1,2-a]pyridin-2-amine]: in test [1], the inhibition at 3 µM worked out at 88.7%. Take `c1ccc(Cc2c(N3CCCC3)nc3ccccn23)cc1` [Compound 7, 3-benzyl-2-(pyrrolidin-1-yl)imidazo[1,2-a]pyridine]: in test [1], the inhibition at 3 µM was determined as 33.4%.

For the compound `CC(=O)N[C@@H](CS)C(=O)O` [NAC, N-acetyl-L-cysteine, reference compound], in test [2], the “AngII-induced ROS” value is “rescued podocytes from AngII-induced ROS”. Consider `CCN(CC)CCSc1c2ccc(Cl)cc2nc2ccc(OC)cc12.Cl` [NSC23677], for which the “caAT1R-induced ROS generation” value in test [3] is “blocked caAT1R-induced ROS generation”. For the same compound, the “podocyte cell death on caAT1R expression” value in test [4] is recorded as “protected from cell death”.
